Results reported in PubChem BioAssay AID1259408 (Genetic Toxicology Data Bank (GENE-TOX), 2018).
The source made the active and inactive calls. How the calls were made is not given here.

System: GENE-TOX genotoxicity assays, various organisms and cells
Test: GENE-TOX mutagenicity studies
Conditions: for call: Assay Type: In vivo carcinogenicity studies
[1] = Species/Cell Type: Chinese hamster lung (V79) cells, Assay Type: Forward gene mutation at the HPRT or ouabain locus, Assay Code: V79+, Evaluation Type: Evaluation A (Pre-1980)
[2] = Species/Cell Type: Glycine max (soybean), Assay Type: Gene mutation, Assay Code: GLM-, Evaluation Type: Evaluation A (Pre-1980)
[3] = Species/Cell Type: Nonhuman, Assay Code: CCGT, Evaluation Type: Evaluation A (Pre-1980)
[4] = Species/Cell Type: Nonhuman, Assay Type: Sister-chromatid exchange (SCE) in vitro, Assay Code: SC2+D, Dose Response: With dose response, Evaluation Type: Evaluation B (Post-1980)
[5] = Species/Cell Type: Escherichia coli polA (W3119 vs P3478), Assay Type: Rec-assay, DNA effects (bacterial DNA repair), Assay Code: RE1+, Evaluation Type: Evaluation A (Pre-1980)
[6] = Species/Cell Type: Bacillus subtilis (H17 vs M45), Assay Type: Rec-assay, spot test, DNA effects (bacterial DNA repair), Assay Code: REW-, Evaluation Type: Evaluation A (Pre-1980)
[7] = Species/Cell Type: Human, Assay Type: Sister-chromatid exchange (SCE) in vitro, Assay Code: SC1+D, Dose Response: With dose response, Evaluation Type: Evaluation B (Post-1980)
[8] = Species/Cell Type: Salmonella typhimurium (one or more of the five standard strains: TA98, TA100, TA1535, TA1537, and TA1538), Assay Type: Histidine reverse gene mutation, Ames assay, Assay Code: SALT, Evaluation Type: Evaluation A (Pre-1980)
[9] = Species/Cell Type: Drosophila melanogaster, Assay Type: Sex-linked recessive lethal gene mutation, Assay Code: SRL+, Evaluation Type: Evaluation A (Pre-1980)
[10] = Species/Cell Type: Salmonella typhimurium (one or more of the five standard strains: TA98, TA100, TA1535, TA1537, and TA1538), Assay Type: Histidine reverse gene mutation, Ames assay, Assay Code: SAL+, Evaluation Type: Evaluation A (Pre-1980)
[11] = Species/Cell Type: Salmonella typhimurium (one or more of the five standard strains: TA98, TA100, TA1535, TA1537, and TA1538), Assay Type: Histidine reverse gene mutation, Ames assay, Assay Code: SAL+*, Activation: With metabolic activation, Evaluation Type: Evaluation A (Pre-1980)
[12] = Species/Cell Type: Neurospora crassa, Assay Type: Forward gene mutation, Assay Code: NEF+, Evaluation Type: Evaluation A (Pre-1980)
[13] = Species/Cell Type: Saccharomyces cerevisiae, Assay Type: Mitotic recombination or gene conversion, Assay Code: YEC+, Evaluation Type: Evaluation A (Pre-1980)

Cc1cn([C@H]2C[C@H](O)[C@@H](CO)O2)c(=O)[nH]c1=O
mutagenic call [1]: active; positive
mutagenic call [2]: inactive; negative
mutagenic call (Species/Cell Type: Human lymphocytes, Assay Type: Sister-chromatid exchange (SCE) in vitro, Assay Code: SCLT, Evaluation Type: Evaluation B (Post-1980)): no conclusion
mutagenic call (Species/Cell Type: Human, Assay Type: Sister-chromatid exchange (SCE) in vitro, Assay Code: SC1T, Evaluation Type: Evaluation B (Post-1980)): no conclusion
mutagenic call (Species/Cell Type: Mouse (C3H/10T1/2) cells, Assay Type: Cell transformation, Assay Code: CTH-, Evaluation Type: Evaluation A (Pre-1980)): inactive; negative
call [3]: no conclusion
mutagenic call [4]: active; positive

CC[C@]1(O)CC[C@H]2[C@@H]3CCC4=CC(=O)CC[C@@H]4[C@H]3CC[C@@]21C
mutagenic call (Species/Cell Type: Human, Sex: Male, Assay Type: Sperm morphology, Assay Code: SPH+, Evaluation Type: Evaluation A (Pre-1980)): active; positive

BrCCCCCBr
mutagenic call [5]: active; positive

Nc1nc(-c2ccccc2)cs1
mutagenic call [6]: inactive; negative

Nc1nccc2c1[nH]c1ccccc12
mutagenic call [7]: active; positive
mutagenic call (Species/Cell Type: Nonhuman, Assay Type: Sister-chromatid exchange (SCE) in vitro, Assay Code: SC2T, Evaluation Type: Evaluation B (Post-1980)): no conclusion

Cc1cccc(-c2ccc(N)cc2C)c1
mutagenic call (Species/Cell Type: Syrian hamster embryo (SHE) cells, Assay Type: Cell transformation, clonal assay, Assay Code: CTC+, Evaluation Type: Evaluation A (Pre-1980)): active; positive

O=C1c2ccccc2C(=O)c2c(NCCNCCO)ccc(NCCNCCO)c21
mutagenic call [4]: active; positive

OC(c1ccccc1)C(c1ccccc1)c1ccccc1 (configuration not stated)
mutagenic call (Species/Cell Type: Escherichia coli polA (W3119 vs P3478), Assay Type: Rec-assay, DNA effects (bacterial DNA repair), Assay Code: RE1T, Evaluation Type: Evaluation A (Pre-1980)): no conclusion

COc1cc2c(c3oc(=O)c4c(c13)CCOC4=O)[C@@H]1CCO[C@@H]1O2
mutagenic call [6]: inactive; negative
mutagenic call (Species/Cell Type: Chinese hamster lung (V79) cells, Assay Type: Forward gene mutation at the HPRT or ouabain locus, Assay Code: V79-*, Activation: With metabolic activation, Evaluation Type: Evaluation A (Pre-1980)): inactive; negative
mutagenic call (Species/Cell Type: Human diploid fibroblasts, Assay Type: Unscheduled DNA synthesis (UDS) in vitro, DNA effects, Assay Code: UDH-*, Activation: With metabolic activation, Evaluation Type: Evaluation A (Pre-1980)): inactive; negative
mutagenic call (Species/Cell Type: Nonhuman, Assay Type: Sister-chromatid exchange (SCE) in vitro, Assay Code: SC2+D*, Activation: With metabolic activation, Dose Response: With dose response, Evaluation Type: Evaluation B (Post-1980)): active; positive
mutagenic call (Species/Cell Type: Rat primary hepatocytes, Assay Type: Unscheduled DNA synthesis (UDS) in vitro, DNA effects, Assay Code: UDP-, Evaluation Type: Evaluation A (Pre-1980)): inactive; negative
mutagenic call [8]: no conclusion

O=NN1CCC(Br)C(Br)C1 (configuration not stated)
mutagenic call [9]: active; positive
mutagenic call [10]: active; positive

BrC(Br)Br
mutagenic call (Species/Cell Type: Human lymphocytes, Assay Type: Sister-chromatid exchange (SCE) in vitro, Assay Code: SCL+D, Dose Response: With dose response, Evaluation Type: Evaluation B (Post-1980)): active; positive
mutagenic call [7]: active; positive
mutagenic call [4]: active; positive
mutagenic call (Species/Cell Type: Nonhuman, Assay Type: Sister-chromatid exchange (SCE) in vivo, Assay Code: SC3+D, Dose Response: With dose response, Evaluation Type: Evaluation B (Post-1980)): active; positive

O=[N+]([O-])O
mutagenic call (Species/Cell Type: Bacillus subtilis (H17 vs M45), Assay Type: Rec-assay, spot test, DNA effects (bacterial DNA repair), Assay Code: REW+, Evaluation Type: Evaluation A (Pre-1980)): active; positive
mutagenic call (Species/Cell Type: Mammalian polychromatic erythrocytes, Assay Type: Micronucleus test, chromosome aberrations, Assay Code: MNT+U, Dose Response: Unconfirmed positive response, Evaluation Type: Evaluation B (Post-1980)): active; positive
mutagenic call (Species/Cell Type: Syrian hamster embryo (SA7/SHE) cells, Assay Type: Cell transformation, viral enhanced, Assay Code: CT7-, Evaluation Type: Evaluation A (Pre-1980)): inactive; negative
mutagenic call (Species/Cell Type: Syrian hamster embryo (SHE) cells, Assay Type: Cell transformation, clonal assay, Assay Code: CTCT, Evaluation Type: Evaluation A (Pre-1980)): no conclusion

O=Nc1c([O-])ccc2cc(S(=O)(=O)[O-])ccc12.O=Nc1c([O-])ccc2cc(S(=O)(=O)[O-])ccc12.O=Nc1c([O-])ccc2cc(S(=O)(=O)[O-])ccc12.[Fe+3].[Na+].[Na+].[Na+]
mutagenic call (Species/Cell Type: Bacillus subtilis (H17 vs M45), Assay Type: Rec-assay, spot test, DNA effects (bacterial DNA repair), Assay Code: REWT, Evaluation Type: Evaluation A (Pre-1980)): no conclusion

Cc1ccc2c(ccc3c4ccccc4ccc23)c1
mutagenic call [11]: active; positive

CC(C)NC(=O)/C=C/c1ccc([N+](=O)[O-])o1
mutagenic call [1]: active; positive
mutagenic call [12]: active; positive
mutagenic call (Species/Cell Type: Neurospora crassa, Assay Type: Reverse gene mutation, Assay Code: NER+, Evaluation Type: Evaluation A (Pre-1980)): active; positive
mutagenic call [13]: active; positive
mutagenic call [10]: active; positive

O=c1c(=O)c2cc3ccccc3c3ccc4cccc1c4c23
mutagenic call (Species/Cell Type: Chinese hamster lung (V79) cells, Assay Type: Forward gene mutation at the HPRT or ouabain locus, Assay Code: V79-, Evaluation Type: Evaluation A (Pre-1980)): inactive; negative
mutagenic call [8]: no conclusion

COc1ccc(C(=C(c2ccc(OC)cc2)c2ccc(OC)cc2)c2ccc(OC)cc2)cc1
mutagenic call [8]: no conclusion

CN(C)N=Nc1ccccc1
mutagenic call (Species/Cell Type: Drosophila melanogaster, Assay Type: Aneuploidy, partial sex chromosome loss, chromosome aberrations, Assay Code: DAP+M, Evaluation Type: Evaluation A (Pre-1980)): active; positive
mutagenic call [9]: active; positive
mutagenic call (Species/Cell Type: Drosophila melanogaster, Sex: Male, Assay Type: Heritable translocation test, chromosome aberrations, Assay Code: DHT+, Evaluation Type: Evaluation A (Pre-1980)): active; positive
mutagenic call (Species/Cell Type: Escherichia coli polA (W3110 vs P3478), Assay Type: Rec-assay, DNA effects (bacterial DNA repair), Assay Code: RE2+, Evaluation Type: Evaluation A (Pre-1980)): active; positive
mutagenic call [5]: active; positive
mutagenic call (Species/Cell Type: Mammalian polychromatic erythrocytes, Assay Type: Micronucleus test, chromosome aberrations, Assay Code: MNT+, Evaluation Type: Evaluation A (Pre-1980)): active; positive
mutagenic call [12]: active; positive
mutagenic call (Species/Cell Type: Nonhuman lymphocytes or leukocytes, Assay Type: Chromosome aberrations in vivo, Assay Code: CY%-, Evaluation Type: Evaluation A (Pre-1980)): inactive; negative
call (Species/Cell Type: Nonhuman, Assay Code: CCG+, Evaluation Type: Evaluation A (Pre-1980)): active; positive
mutagenic call (Species/Cell Type: Nonhuman, Assay Type: Sister-chromatid exchange (SCE) in vivo, Assay Code: SC3+D, Dose Response: With dose response, Evaluation Type: Evaluation A (Pre-1980)): active; positive
mutagenic call (Species/Cell Type: Saccharomyces cerevisiae, Assay Type: Forward and reverse gene mutation, mitotic recombination and gene conversion, host-mediated assay, Assay Code: HME+, Evaluation Type: Evaluation A (Pre-1980)): active; positive
mutagenic call [13]: active; positive
mutagenic call (Species/Cell Type: Saccharomyces cerevisiae, Assay Type: Mitotic recombination or gene conversion, Assay Code: YEH+, Evaluation Type: Evaluation A (Pre-1980)): active; positive

O=C1c2ccccc2-c2ccc(Oc3ccc(S(=O)(=O)O)cc3)c3cccc1c23
mutagenic call [10]: active; positive

Oc1ccc2cc3ccc4cccc5ccc(c2c1)c3c45
mutagenic call (Species/Cell Type: Chinese hamster lung (V79) cells, Assay Type: Forward gene mutation at the HPRT or ouabain locus, Assay Code: V79+/-*, Activation: With metabolic activation, Evaluation Type: Evaluation A (Pre-1980)): inactive; positive without activation, negative with activation
call [3]: no conclusion
mutagenic call [11]: active; positive

CNN
mutagenic call (Species/Cell Type: Escherichia coli WP2 UVRA, Assay Type: Tryptophan reverse gene mutation, Assay Code: WPU+, Evaluation Type: Evaluation A (Pre-1980)): active; positive
mutagenic call (Species/Cell Type: Human diploid fibroblasts, Assay Type: Unscheduled DNA synthesis (UDS) in vitro, DNA effects, Assay Code: UDH-, Evaluation Type: Evaluation A (Pre-1980)): inactive; negative
call (Species/Cell Type: Nonhuman, Assay Code: CCG+L, Evaluation Type: Evaluation A (Pre-1980)): active; positive
mutagenic call (Species/Cell Type: Rodents, Sex: Male, Assay Type: Dominant lethal test, Assay Code: DLT-, Evaluation Type: Evaluation A (Pre-1980)): inactive; negative
mutagenic call (Species/Cell Type: Saccharomyces cerevisiae, Assay Type: Mitotic recombination or gene conversion, Assay Code: YEC-, Evaluation Type: Evaluation A (Pre-1980)): inactive; negative
mutagenic call [11]: active; positive

CC(=O)C=O
mutagenic call [4]: active; positive

c1ccc2nccnc2c1
mutagenic call (Species/Cell Type: Mouse, Sex: Male, Assay Type: Sperm morphology, Assay Code: SPI-, Evaluation Type: Evaluation A (Pre-1980)): inactive; negative

O=Nc1c(O)c(S(=O)(=O)O)cc2cc(S(=O)(=O)O)ccc12
mutagenic call [2]: inactive; negative
